Results from ChEMBL document CHEMBL1153352 (Bioorg Med Chem Lett, 2009).
In brackets after ≈: the same amount, converted by molar mass.

Assays:
[1] = Solubility in water at pH 7.4; format: physicochemical
[2] = target: Hepatocyte growth factor receptor (Homo sapiens, UniProt P08581); assay: Inhibition of GST-tagged human c-Met expressed in SF9 cells
Chain of Hepatocyte growth factor receptor (P08581 whole entry): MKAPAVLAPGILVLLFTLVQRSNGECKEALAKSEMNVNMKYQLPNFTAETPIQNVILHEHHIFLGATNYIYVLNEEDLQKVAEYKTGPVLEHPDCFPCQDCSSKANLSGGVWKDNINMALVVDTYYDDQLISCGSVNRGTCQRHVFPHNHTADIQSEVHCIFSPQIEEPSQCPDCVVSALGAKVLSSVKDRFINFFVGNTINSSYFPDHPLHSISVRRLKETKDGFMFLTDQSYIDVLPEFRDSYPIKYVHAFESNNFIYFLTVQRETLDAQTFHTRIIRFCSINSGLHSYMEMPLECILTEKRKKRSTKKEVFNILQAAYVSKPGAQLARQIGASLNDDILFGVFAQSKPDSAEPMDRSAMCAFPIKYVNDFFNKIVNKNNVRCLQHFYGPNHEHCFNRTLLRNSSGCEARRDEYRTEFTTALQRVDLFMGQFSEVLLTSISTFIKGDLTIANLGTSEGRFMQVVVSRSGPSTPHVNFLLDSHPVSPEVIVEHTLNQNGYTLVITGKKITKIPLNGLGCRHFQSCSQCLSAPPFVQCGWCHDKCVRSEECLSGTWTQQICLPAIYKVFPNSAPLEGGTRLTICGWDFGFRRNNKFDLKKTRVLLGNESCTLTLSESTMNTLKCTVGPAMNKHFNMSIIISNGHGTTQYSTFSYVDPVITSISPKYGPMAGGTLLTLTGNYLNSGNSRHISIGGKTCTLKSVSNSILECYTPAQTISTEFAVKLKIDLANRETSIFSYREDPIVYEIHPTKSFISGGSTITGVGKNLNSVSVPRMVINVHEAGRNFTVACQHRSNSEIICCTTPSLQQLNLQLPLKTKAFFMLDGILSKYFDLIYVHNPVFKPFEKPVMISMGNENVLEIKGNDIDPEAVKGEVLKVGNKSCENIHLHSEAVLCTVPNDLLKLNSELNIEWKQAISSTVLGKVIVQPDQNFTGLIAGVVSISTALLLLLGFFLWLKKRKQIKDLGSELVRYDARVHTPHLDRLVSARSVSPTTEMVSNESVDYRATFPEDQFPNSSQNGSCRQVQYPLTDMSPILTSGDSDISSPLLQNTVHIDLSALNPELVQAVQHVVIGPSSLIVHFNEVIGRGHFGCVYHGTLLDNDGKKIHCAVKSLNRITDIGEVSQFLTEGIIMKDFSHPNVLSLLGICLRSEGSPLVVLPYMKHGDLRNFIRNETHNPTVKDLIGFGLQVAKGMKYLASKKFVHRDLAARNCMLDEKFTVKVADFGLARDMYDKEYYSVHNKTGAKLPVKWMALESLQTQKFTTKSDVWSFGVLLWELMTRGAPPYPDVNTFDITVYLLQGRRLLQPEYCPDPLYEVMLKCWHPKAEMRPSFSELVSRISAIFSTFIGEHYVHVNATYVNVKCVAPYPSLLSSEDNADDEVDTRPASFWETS

solubility [1] [µg/mL]	IC50 [2]	SMILES
1 (≈ 3.18 µM)		N#Cc1ccc2[nH]c(-c3ccncc3)c(-c3ccc(F)cc3)c2n1
	Not Active	N#Cc1ccc2[nH]c(-c3ccncc3)c(-c3ccncc3)c2n1
	Not Active	N#Cc1ccc2[nH]c(-c3ccncc3)c(-c3cnc(N)nc3)c2n1
	Not Active	CS(=O)(=O)c1ccc(-c2c(-c3ccncc3)[nH]c3ccc(C#N)nc23)cc1
	Not Active	N#Cc1ccc2[nH]c(-c3ccccc3)c(-c3ccc(F)cc3)c2n1
